The values below are quoted from earlier work in patent US20050013939A1, “Boron-based wood preservatives and treatment of wood with boron-based preservatives” (priority 2001, published 2005).

The subject of one data set is Insect. Conditions: boric acid equivalents typically required in wood.
Another data set concerns fungal decay. As to conditions: boric acid equivalents typically required in wood.

Take `OB(O)O` [boric acid]: the “% wt/wt BAE required, Insect protection” value in the data set with Insect was 0.25 % wt/wt. Besides, the “% wt/wt BAE required, Fungicidal protection” value in the data set with fungal decay is reported as 0.75 % wt/wt.
